Laboratory results reported in patent US20230131899A1, “INHIBITORS OF MICROBIALLY INDUCED AMYLOID” (Axial Therapeutics, Inc., priority 2020, published 2023).
Read-outs that look alike come from different tables or passages of the source.

Tested on: CsgA gene expression (csgBAC promoter-GFP reporter) in E. coli UTI89
Assay: In vitro live cell fluorescent reporter assay of CsgA transcription (Reporter Assay)
Format: cell-based
Details: Escherichia coli
Outline: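 Compounds at 0.14–100 μM (1% DMSO final) incubated 20 h at 27 °C in YESCA broth with UTI89 carrying a single-copy GFP reporter under the csgBAC intergenic promoter region, inoculum OD600 0.003. Fluorescence normalized to vehicle wells gave IC50 and 50%-of-vehicle concentration; OD600 reduction >10% flagged growth impact.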

[1] = read-out: Reporter Assay Abs IC50 (activity range), median Abs IC50 in the CsgA reporter assay, class symbol
[2] = read-out: Reporter Assay Abs IC50 (μM), median Abs IC50 in the CsgA reporter assay, N/A = maximum expression reduction is <50% of control

| SMILES | IC50 [1] [µM] | IC50 [2] [µM] |
| --- | --- | --- |
| O=C(O)C1CN(CCCCCO)S(=O)(=O)c2c(-c3cccc(C(F)(F)F)c3)c(Cc3cccc4ccccc34)c(NC3CCCC3)c(=O)n21 (centres unmarked) [Compound 122, 7-(cyclopentylamino)-2-(5-hydroxypentyl)-8-(naphthalen-1-ylmethyl)-6-oxo-9-(3-(trifluoromethyl)phenyl)-3,4-dihydro-2H,6H-pyrido[1,2-e][1,2,5]thiadiazine-4-carboxylic acid 1,1-dioxide] | 1.3 to 4.5 | 1.9 |
| CC(C)N1CC(C(=O)O)n2c(c(-c3cccc(C(F)(F)F)c3)c(Cc3cccc4ccccc34)c(NC3CCCC3)c2=O)S1(=O)=O (centres unmarked) [Compound 123, 7-(cyclopentylamino)-2-isopropyl-8-(naphthalen-1-ylmethyl)-6-oxo-9-(3-(trifluoromethyl)phenyl)-3,4-dihydro-2H,6H-pyrido[1,2-e][1,2,5]thiadiazine-4-carboxylic acid 1,1-dioxide] | 1.3 to 4.5 | 3.3 |
| CCCN1CC(C(=O)O)n2c(c(-c3cccc(C(F)(F)F)c3)c(Cc3cccc4ccccc34)c(NC3CCCC3)c2=O)S1(=O)=O (centres unmarked) [Compound 126, 7-(cyclopentylamino)-8-(naphthalen-1-ylmethyl)-6-oxo-2-propyl-9-(3-(trifluoromethyl)phenyl)-3,4-dihydro-2H,6H-pyrido[1,2-e][1,2,5]thiadiazine-4-carboxylic acid 1,1-dioxide] | 1.3 to 4.5 | 1.9 |
| CCCN1CC(C(=O)O)n2c(c(-c3cccc(C(F)(F)F)c3)c(Cc3cccc4ccccc34)c(NC3CCOCC3)c2=O)S1(=O)=O (centres unmarked) [Compound 127, 8-(naphthalen-1-ylmethyl)-6-oxo-2-propyl-7-((tetrahydro-2H-pyran-4-yl)amino)-9-(3-(trifluoromethyl)phenyl)-3,4-dihydro-2H,6H-pyrido[1,2-e][1,2,5] thiadiazine-4-carboxylic acid 1,1-dioxide] | 4.6 to 10 | 4.8 |
